Measurements taken from US8182837B2, “Methods and compositions for reducing the risk associated with the administration of opioid analgesics in patients with diagnosed or undiagnosed respiratory illness” (QRxPharma Limited, priority 2003, dated 2012).
Where two headings read alike, the source gives them in different places.

Experiments:
[1] = P=0.033; of borderline clinical significance
[2] = cited from earlier work; for lower threshold for an initial dosage resulting in production of analgesia: naive human adult

Question: Which results are given for `CN1CC[C@]23c4c5ccc(O)c4O[C@H]2[C@@H](O)C=C[C@H]3[C@H]1C5` [Morphine, morphine]?
Answer: difference mean, pre-treatment VAS greater than steady-state VAS [1]: 1.2 cm; lower threshold for an initial dosage resulting in production of analgesia ([2]; intravenous route): 4-5 mg every four hours; lower threshold for an initial dosage resulting in production of analgesia ([2]; oral route): 30 mg every four hours

Question: For `COc1ccc2c3c1O[C@H]1C(=O)CC[C@@]4(O)[C@@H](C2)N(C)CC[C@]314` [oxycodone], which “analgesic potency relative to morphine (as a function of mass of dose)” value ([2]; in vivo) is on record?
Answer: Its value is “about 1.5 times”.

Question: What about the “lower threshold for an initial dosage resulting in production of analgesia” value ([2]; oral route) of the same compound?
Answer: The value was 10 mg every four hours.
